System: DIG10.3
Experiment: Binding of tethered ligand to binding protein DIG10.3

`CC(=O)[C@H]1CC[C@H]2[C@@H]3CCC4=CC(=O)CC[C@]4(C)[C@H]3CC[C@]12C` [Progesterone, progesterone] was tested, and the “binding to DIG10.3” value was “binds weakly”.

Reference: patent publication US9952208B2, “Means and methods for bioluminescence resonance energy transfer (BRET) analysis in a biological sample” (priority 2013, dated 2018)
